From patent US20210094971A1, “HETEROCYCLIC COMPOUNDS” (Hoffmann-La Roche Inc., priority 2019, published 2021)

Target: T1, MAGL (Homo sapiens, UniProt Q99685)
T1 sequence (Q99685 1-303): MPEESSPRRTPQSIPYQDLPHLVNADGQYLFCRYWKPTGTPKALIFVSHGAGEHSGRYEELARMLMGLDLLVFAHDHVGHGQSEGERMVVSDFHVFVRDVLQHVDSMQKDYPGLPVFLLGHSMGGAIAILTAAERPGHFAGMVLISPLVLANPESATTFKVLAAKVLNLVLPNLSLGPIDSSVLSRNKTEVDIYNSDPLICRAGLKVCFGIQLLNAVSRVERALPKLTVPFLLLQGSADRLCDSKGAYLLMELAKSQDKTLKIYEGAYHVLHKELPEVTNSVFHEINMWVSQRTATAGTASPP
Assay: 2-AG assay (MAGL inhibitory activity, hydrolysis of 2-arachidonoylglycerol followed by mass spectrometry)
Type: biochemical
Conditions: 50 pM MAGL, 8 μM 2-arachidonoylglycerol, 15 min pre-incubation, 30 min incubation at RT
Method: Compounds were profiled for MAGL inhibitory activity by determining the enzymatic activity by following the hydrolysis of the natural substrate 2-arachidonoylglycerol resulting in arachidonic acid, which can be followed by mass spectrometry. This assay is hereinafter abbreviated “2-AG assay”.
The 2-AG assay was carried out in 384 well assay plates (PP, Greiner Cat# 784201) in a total volume of 20 μL. Compound dilutions were made in 100% DMSO (VWR Chemicals 23500.297) in a polypropylene plate in 3-fold dilution steps to give a final concentration range in the assay from 12.5 μM to 0.8 pM. 0.25 μL compound dilutions (100% DMSO) were added to 9 μL MAGL in assay buffer (50 mM TRIS (GIBCO, 15567-027), 1 mM EDTA (Fluka, 03690-100 ml), 0.01% (v/v) Tween. After shaking, the plate was incubated for 15 min at RT. To start the reaction, 10 μL 2-arachidonoylglycerol in assay buffer was added. The final concentrations in the assay was 50 pM MAGL and 8 μM 2-arachidonoylglyerol. After shaking and 30 min incubation at RT, the reaction was quenched by the addition of 40 μL of acetonitrile containing 4 μM of d8-arachidonic acid. The amount of arachidonic acid was traced by an online SPE system (Agilent Rapidfire) coupled to a triple quadrupole mass spectrometer (Agilent 6460). A C18 SPE cartridge (G9205A) was used in an acetonitrile/water liquid setup. The mass spectrometer was operated in negative electrospray mode following the mass transitions 303.1→259.1 for arachidonic acid and 311.1→267.0 for d8-arachidonic acid. The activity of the compounds was calculated based on the ratio of intensities [arachidonic acid/d8-arachidonic acid].

| IC50 [nM] | Molecule |
| --- | --- |
| 670 | O=C1CO[C@@H]2CCN(C(=O)N3CC4CCC(C3)C4COc3ccc(F)cc3Cl)C[C@@H]2N1 (stereo partly drawn) [Example 27, (4aS,8aR)-6-[8-[(2-chloro-4-fluoro-phenox)methyl]-3-azabicyclo[3.2.1]octane-3-carbonyl]-4,4a,5,7,8,8a-hexahydropyrido[4,3-b][1,4]oxazin-3-one] |
| 16.2 | (4aR,8aS)-6-[rel-(1R,4R,5S)-5- [(5-chloro-4-cyclopropyl-2- pyridyl)methoxy]-2- azabicyclo[2.2.1]heptane-2- carbonyl]-4,4a,5,7,8,8a- hexahydropyrido[4,3- b][1,4]oxazin-3-one [Example 10] |
| 82.5 | (4aR,8aS)-6-[rel-(1R,4R,5S)-5- [(5-chloro-4-cyclopropyl-2- pyridyl)methoxy]-2- azabicyclo[2.2.1]heptane-2- carbonyl]-4,4a,5,7,8,8a- hexahydropyrido[4,3- b][l,4]oxazin-3-one [Example 11] |
| 9.7 | (4aR,8aS)-6-[rel-(1R,4R,5S)-5- [[2-fluoro-4- (trifluoromethyl)phenyl]methoxy]- 2-azabicyclo[2.2.1]heptane-2- carbonyl]-4,4a,5,7,8,8a- hexahydropyrido[4,3- b][1,4]oxazin-3-one [Example 20] |
| 18.6 | (4aR,8aS)-6-[rel-(1R,4R,5S)-5- [[2-fluoro-4- (trifluoromethyl)phenyl]methoxy]- 2-azabicyclo[2.2.1]heptane-2- carbonyl]-4,4a,5,7,8,8a- hexahydropyrido[4,3- b][1,4]oxazin-3-one [Example 21] |

| Molecule | IC50 [nM] |
| --- | --- |
| O=C1CO[C@H]2CCN(C(=O)N3C4CCC3CC(COc3ccc(F)cc3Cl)C4)C[C@H]2N1 (stereo partly drawn) [Example 26, (4aR,8aS)-6-[3-[(2-chloro-4-fluoro-phenoxy)methyl]-8-azabicyclo[3.2.1]octane-8-carbonyl]-4,4a,5,7,8,8a-hexahydropyrido[4,3-b][1,4]oxazin-3-one] | 3690 |
